Assay: Phase 1 clinical pharmacokinetics in plasma
Assay type: in vivo, human
Details: for AUC0-24, Mean (CV%) / AUC0-t, Mean (CV%) / CLz/F, Mean (CV%) / Cmax, Mean (CV%) / Tmax, median [Min-Max] / Vz/F, Mean (CV%) / t1/2z, Mean (CV%): Single dose; for AUC0-24,ss, Mean (CV%) / Cmax,ss, Mean (CV%) / Tmax,ss, median [Min-Max]: Steady State

In the case of `COc1cc2c(Nc3ccc(Br)cc3F)ncnc2cc1OCCCCN(C)C.Cl.Cl` [HA121-28, N-(4-bromo-2-fluorophenyl)-7-(4-(dimethylamino)butoxy)-6-methoxy quinazolin-4-amine dihydrochloride], the “AUC0-24, Mean (CV%)” value (25 mg (N=1)) is reported as 237.1 (-) h*ng/mL, the “AUC0-t, Mean (CV%)” value (25 mg (N=1)) is reported as 906.8 (-) h*ng/mL and the “CLz/F, Mean (CV%)” value (25 mg (N=1)) is reported as 18.5 (-) L/h. The “Cmax, Mean (CV%)” value (25 mg (N=1)) was 15.6 (-) ng/mL, the “Tmax, median [Min-Max]” value (25 mg (N=1)) was 4 [4,4] h and the “Vz/F, Mean (CV%)” value (25 mg (N=1)) was 2971.7 (-) L. The “t1/2z, Mean (CV%)” value (25 mg (N=1)) was 111.2 (-) h, the “AUC0-24, Mean (CV%)” value (50 mg (N=1)) was 283.0 (-) h*ng/mL and the “AUC0-t, Mean (CV%)” value (50 mg (N=1)) was 1645.1 (-) h*ng/mL. The “CLz/F, Mean (CV%)” value (50 mg (N=1)) was 19.5 (-) L/h, the “Cmax, Mean (CV%)” value (50 mg (N=1)) was 15.6 (-) ng/mL and the “Tmax, median [Min-Max]” value (50 mg (N=1)) was 24 [24,24] h. The “Vz/F, Mean (CV%)” value (50 mg (N=1)) was 3137.7 (-) L, the “t1/2z, Mean (CV%)” value (50 mg (N=1)) was 111.6 (-) h and the “AUC0-24, Mean (CV%)” value (100 mg (N=4)) was 725.9 (306.5) h*ng/mL. For the same compound, the “AUC0-t, Mean (CV%)” value (100 mg (N=4)) was 3460.0 (1126.6) h*ng/mL, the “CLz/F, Mean (CV%)” value (100 mg (N=4)) was 18.8 (4.8) L/h and the “Cmax, Mean (CV%)” value (100 mg (N=4)) was 46.4 (27.0) ng/mL. The “Tmax, median [Min-Max]” value (100 mg (N=4)) was 6 [4-24] h, the “Vz/F, Mean (CV%)” value (100 mg (N=4)) was 2303.3 (37.5) L and the “t1/2z, Mean (CV%)” value (100 mg (N=4)) was 89.1 (23.8) h. For the same compound, the “AUC0-24, Mean (CV%)” value (200 mg (N=4)) was 1884.6 (514.6) h*ng/mL, the “AUC0-t, Mean (CV%)” value (200 mg (N=4)) was 7763.0 (2539.2) h*ng/mL and the “CLz/F, Mean (CV%)” value (200 mg (N=4)) was 21.6 (7.0) L/h. The “Cmax, Mean (CV%)” value (200 mg (N=4)) was 115.5 (32.7) ng/mL, the “Tmax, median [Min-Max]” value (200 mg (N=4)) was 8 [8-10] h and the “Vz/F, Mean (CV%)” value (200 mg (N=4)) was 2627.1 (1416.0) L. For the same compound, the “t1/2z, Mean (CV%)” value (200 mg (N=4)) was 80.7 (15.3) h, the “AUC0-24, Mean (CV%)” value (300 mg (N=4)) was 3037.9 (854.0) h*ng/mL and the “AUC0-t, Mean (CV%)” value (300 mg (N=4)) was 11276.6 (2463.8) h*ng/mL. For the same compound, the “CLz/F, Mean (CV%)” value (300 mg (N=4)) was 19.1 (3.8) L/h, the “Cmax, Mean (CV%)” value (300 mg (N=4)) was 193.0 (70.1) ng/mL and the “Tmax, median [Min-Max]” value (300 mg (N=4)) was 8 [2-8] h. The “Vz/F, Mean (CV%)” value (300 mg (N=4)) was 2307.1 (724.2) L, the “t1/2z, Mean (CV%)” value (300 mg (N=4)) was 83.1 (16.6) h and the “AUC0-24, Mean (CV%)” value (450 mg (N=7)) was 6271.3 (2275.9) h*ng/mL. The “AUC0-t, Mean (CV%)” value (450 mg (N=7)) was 20218.4 (7301.9) h*ng/mL, the “CLz/F, Mean (CV%)” value (450 mg (N=7)) was 16.2 (6.6) L/h and the “Cmax, Mean (CV%)” value (450 mg (N=7)) was 374.7 (140.6) ng/mL. The “Tmax, median [Min-Max]” value (450 mg (N=7)) was 8 [4-8] h, the “Vz/F, Mean (CV%)” value (450 mg (N=7)) was 2009.5 (706.2) L and the “t1/2z, Mean (CV%)” value (450 mg (N=7)) was 87.6 (11.7) h. For the same compound, the “AUC0-24, Mean (CV%)” value (600 mg (N=5)) was 8403.6 (4593.9) h*ng/mL, the “AUC0-t, Mean (CV%)” value (600 mg (N=5)) was 26818.4 (14650.1) h*ng/mL and the “CLz/F, Mean (CV%)” value (600 mg (N=5)) was 19.7 (8.1) L/h. The “Cmax, Mean (CV%)” value (600 mg (N=5)) was 500.0 (224.3) ng/mL, the “Tmax, median [Min-Max]” value (600 mg (N=5)) was 8 [4-8] h and the “Vz/F, Mean (CV%)” value (600 mg (N=5)) was 2163.4 (719.0) L. The “t1/2z, Mean (CV%)” value (600 mg (N=5)) was 80.8 (19.4) h, the “AUC0-24, Mean (CV%)” value (800 mg (N=3)) was 9721.8 (2598.4) h*ng/mL and the “AUC0-t, Mean (CV%)” value (800 mg (N=3)) was 33030.6 (10820.6) h*ng/mL. The “CLz/F, Mean (CV%)” value (800 mg (N=3)) was 19.9 (9.2) L/h, the “Cmax, Mean (CV%)” value (800 mg (N=3)) was 610.0 (200.1) ng/mL and the “Tmax, median [Min-Max]” value (800 mg (N=3)) was 8 [4-8] h. For the same compound, the “Vz/F, Mean (CV%)” value (800 mg (N=3)) was 2001.6 (613.2) L, the “t1/2z, Mean (CV%)” value (800 mg (N=3)) was 74.1 (24.6) h and the “AUC0-24,ss, Mean (CV%)” value (25 mg (N=1)) was 1629.1 (-) h*ng/mL. For the same compound, the “Cmax,ss, Mean (CV%)” value (25 mg (N=1)) was 77.2 (-) ng/mL, the “Tmax,ss, median [Min-Max]” value (25 mg (N=1)) was 2 [2,2] h and the “AUC0-24,ss, Mean (CV%)” value (50 mg (N=1)) was 2728.6 (-) h*ng/mL. For the same compound, the “Cmax,ss, Mean (CV%)” value (50 mg (N=1)) was 122.0 (-) ng/mL, the “Tmax,ss, median [Min-Max]” value (50 mg (N=1)) was 4 [4,4] h and the “AUC0-24,ss, Mean (CV%)” value (100 mg (N=4)) was 4785.0 (1808.2) h*ng/mL. The “Cmax,ss, Mean (CV%)” value (100 mg (N=4)) was 219.0 (75.2) ng/mL, the “Tmax,ss, median [Min-Max]” value (100 mg (N=4)) was 8 [4-8] h and the “AUC0-24,ss, Mean (CV%)” value (200 mg (N=4)) was 11332.7 (4944.0) h*ng/mL. For the same compound, the “Cmax,ss, Mean (CV%)” value (200 mg (N=4)) was 550.0 (229.2) ng/mL, the “Tmax,ss, median [Min-Max]” value (200 mg (N=4)) was 8 [8-8] h and the “AUC0-24,ss, Mean (CV%)” value (300 mg (N=4)) was 12969.9 (1048.1) h*ng/mL. The “Cmax,ss, Mean (CV%)” value (300 mg (N=4)) was 635.3 (30.1) ng/mL, the “Tmax,ss, median [Min-Max]” value (300 mg (N=4)) was 4 [4-4] h and the “AUC0-24,ss, Mean (CV%)” value (450 mg (N=7)) was 18460.0 (3291.4) h*ng/mL. The “Cmax,ss, Mean (CV%)” value (450 mg (N=7)) was 945.8 (189.0) ng/mL.

Reference: PMC11868595, “Safety, pharmacokinetics and efficacy of HA121-28 in patients with advanced solid tumors and RET fusion-positive non-small-cell lung cancer: a multicenter, open-label, single-arm phase 1/2 trial” (Signal Transduction and Targeted Therapy, 2025)
